Laboratory results reported in patent publication US12583835B2, “Crystal form of nitroxoline prodrug, pharmaceutical composition containing same, and preparation method therefor and application thereof” (Jiangsu Yahong Meditech Co., Ltd., priority 2020, dated 2026).

What was measured:
[1] = Stability in liver microsome (dog); assay type: in vitro ADME; settings: 2 μM, 30 minutes, 37° C.
Method: (§1) Experimental instruments: thermostatic oscillator (SHA-B, Guohua Instrument); centrifuge (5810R, Eppendorf), mass spectrometer (API4000, Applied), liquid chromatography (LC-30AD, Shimadzu); sampler (CTC Analytics AG System, CTC).
(§2) Experimental procedures: to 100 mM phosphate buffer was added 25 μg/mL alamethicin (Aldrich Reagents), 5 mM magnesium chloride and 0.5 mg/mL microsomes (XENOTECH) to prepare a reaction solution without coenzymes. To a portion of the reaction solution was added 1 mM reduced nicotinamide adenine dinucleotide phosphate (Aldrich Reagents) and 5 mM uridine diphosphate glucuronic acid (Aldrich Reagents) to prepare a reaction solution with coenzymes. […] Immediately after mixing well, 50 μL of the solution was collected as the 0-minute sample, and another 50 μL was collected after 30 minutes of incubation of the remaining sample at 37° C. The proteins in all collected samples were immediately precipitated, and the supernatants were collected by centrifugation, in which the compound concentrations were determined by LC/MS/MS.

[2] = Stability in liver microsome (rat); assay type: in vitro ADME; settings: 2 μM, 30 minutes, 37° C.
Method: as §1, §2

[3] = Stability in liver microsome (human); assay type: in vitro ADME; settings: 2 μM, 30 minutes, 37° C.
Method: as §1, §2

[4] = Pharmacokinetic assay in dogs; assay type: in vivo; settings: beagles
Text: Nitroxoline is mainly metabolized by Phase II metabolism in the liver with a high metabolism rate, thus the in vivo half-life is short. In this experiment, after a single intravenous or oral administration of nitroxoline and the compound obtained in Example 1 to dogs, the changes in the concentration of the compound nitroxoline in dog plasma were studied, so as to evaluate the in vivo pharmacokinetic behaviors of nitroxoline and the compound obtained in Example 1.
Male beagles (Beijing Marshall Bioresources Co., Ltd., laboratory animal production license No.: SCXK (Beijing) 2016-0001, laboratory animal certificate No.: 11400600001728), 3 beagles per group, weight 10-13 kg, 20-22 months old, were fasted overnight before drug administration with free access to water, and food was given 4 hours after drug administration. The compound to be tested was put into an EP tube, dimethyl sulfoxide, Solutol® and sterile water for injection (the volume ratio of the three was 1:2:17, v:v:v) were added, and the EP tube was sonicated for 20 minutes to fully dissolve the compound (formulation concentration of the compound: 0.005 mmol/mL). The intravenous dose was 0.01 mmol/kg, and the oral dose was 0.1 mmol/kg. 0.3 ml of whole blood was collected from the jugular vein before drug administration (0 hour) and 0.0833, 0.25, 0.5, 0.75, 1, 2, 4, 6, 8, 10 and 12 hours after drug administration (the sampling points were adjusted according to the situation) and placed in a centrifuge tube containing EDTA-K2 (Aldrich Reagents) for anticoagulation, which was placed in crushed ice after sample collection. The tube was centrifuged at 1530 g for 10 minutes within 0.5 hours of sample collection. All clean plasma were isolated and placed in another clean centrifuge tube, which was placed in a −20° C. refrigerator until testing.
A series of solutions for standard curve was prepared. To 10 μL of solutions for standard curve and samples was added 1000 μL of internal standard working solution (a solution of 5 ng/mL verapamil (Aldrich Reagents), 50 ng/mL glibenclamide (Aldrich Reagents) and 50 ng/mL diclofenac (Aldrich Reagents) in acetonitrile) was added, and the resulting solution was vortexed for 5 minutes. After centrifuging at 4° C., 3700 rpm for 10 minutes, 60 μL of the supernatant was collected into a sample tube and mixed well with 120 μL of water, and 10 μL of the mixed solution was injected into the LC/MS system for determination. Pharmacokinetic parameters were calculated using WinNonlin V6.2 non-compartmental model.

[5] = Stability in liver microsome (mouse); assay type: in vitro ADME; settings: 2 μM, 30 minutes, 37° C.
Method: as §1, §2

Percentage (%) of remaining compound in dog liver microsomes ([1]; With coenzyme): 33.13%
Percentage (%) of remaining compound in dog liver microsomes ([1]; Without coenzyme): 53.50%
Percentage (%) of remaining compound in rat liver microsomes ([2]; With coenzyme): 3.64%
Percentage (%) of remaining compound in rat liver microsomes ([2]; Without coenzyme): 46.82%
Percentage (%) of remaining compound in human liver microsomes ([3]; With coenzyme): 26.92%
Percentage (%) of remaining compound in human liver microsomes ([3]; Without coenzyme): 59.42%
AUC0-inf of nitroxoline in plasma ([4]; intravenous 0.01 mmol/kg): 1290 ng*hmL^−1
AUC0-inf of nitroxoline in plasma ([4]; oral 0.1 mmol/kg): 8750 ng*hmL^−1
Percentage (%) of remaining compound in mouse liver microsomes ([5]; With coenzyme): 0.09%
Percentage (%) of remaining compound in mouse liver microsomes ([5]; Without coenzyme): 49.07%
Compound: CC(C)C(=O)N1CCC[C@H]1C(=O)OCOc1ccc([N+](=O)[O-])c2cccnc12 [Compound obtained in Example 1, ((5-nitroquinolin-8-yl)oxy)methyl-isobutyryl-L-prolinate]
